From patent US20210236513A1, “NOVEL USES” (ZARODEX THERAPEUTICS LIMITED, priority 2018, published 2021)

Assays:
[1] = test system: bone marrow B cell subsets; assay: Wild type mouse study, bone marrow B cell immunophenotyping by flow cytometry
[2] = test system: total peripheral blood B-cells from healthy donors differentiating to plasmablasts and plasma cells
[3] = test system: circulating total IgG, IgA, IgM and pneumococcal-specific IgG; assay: Second observational study (interim), circulating immunoglobulins; format: in vivo, human; settings: interim analysis
[4] = test system: B220+ B cells, plasma cells, germinal centre B cells; assay: CIA model, B cell subsets in spleen and lymph nodes by FACS; format: in vivo, DBA/1 mice
[5] = test system: anti-type II collagen IgG1 and IgG2a; assay: CIA model, anti-collagen immunoglobulin by ELISA; format: in vivo, DBA/1 mice
[6] = Michel et al., 2015; cited from earlier work
[7] = test system: class switched memory B cells, plasmablasts and other B cell subsets
[8] = test system: collagen-induced arthritis; assay: Collagen-induced arthritis (CIA) model, onset, clinical score and paw-swelling; format: in vivo, DBA/1 mice
Excerpt: Adult (age 13-15 weeks) DBA/1 male mice were purchased from Envigo (Horst, Netherlands). […] 1. […] All experiments were approved by the Clinical Medicine Animal Welfare and Ethical Review Body (AWERB) and by the UK Home Office. DBA/1 mice were immunised with bovine type II collagen in CFA and monitored daily for onset of arthritis. […] Controls received vehicle (saline) alone. Treatment of mice commenced in one experiment on day 1 after immunisation and in a second experiment on day 15 after immunisation. Clinical scores and paw-swelling were monitored for 10 days following onset of arthritis. A clinical scoring system was used as follows. Arthritis severity was scored by an experienced, non-blinded investigator as follows: 0=normal, 1=slight swelling and/or erythema, 2=pronounced swelling, 3=ankylosis. […] Data were analyzed by one-way ANOVA with Tukey's or Dunnett's multiple comparison test or two-way ANOVA with Tukey's multiple comparison test as appropriate. All calculations were made using GraphPad Prism software.

[9] = test system: T follicular helper cells (CD4+ PD1+ CXCR5+); assay: CIA model, T follicular helper cells by FACS; format: in vivo, DBA/1 mice
[10] = test system: specific antibody levels against Haemophilus B (Hib), Tetanus and Pneumococcus; parameters: species or system human; settings: in vivo
[11] = test system: splenic B cell and T cell populations; assay: Wild type mouse study, spleen immunophenotyping by flow cytometry
[12] = Wild type mouse study, body weight; format: in vivo, C57BL/6 mice; settings: 5 mg/kg and 10 mg/kg IP once daily; maximal by 3 days, recovering fully to baseline by day 9
[13] = test system: treatment-resistant schizophrenia; settings: schizophrenic patients; cited from earlier work
[14] = test system: IgG to Haemophilus influenza B, Pneumococcus and Tetanus; settings: human, in vivo
[15] = test system: serum IgG, IgA and IgM; assay: Serum immunoglobulins in clozapine patients referred to Immunology clinic; format: in vivo, human
[16] = test system: serum/plasma IgG, IgA, IgM; settings: cited from earlier work
[17] = test system: Immunoglobulin levels (IgG, IgA and IgM); assay: Serum immunoglobulin levels by nephelometry, cross-sectional case control study of clozapine-treated vs clozapine-naive patients; format: in vivo, human
[18] = Infection questionnaire, antibiotic courses and hospital admissions, same case control study; format: in vivo, human
[19] = test system: circulating B cell subsets; assay: Second observational study (interim), peripheral blood B cell subsets by FACS; format: in vivo, human; settings: interim analysis
[20] = biological target: T1, CD20 (Homo sapiens, UniProt P11836); settings: Arnold et al., 2017; Khellaf et al., 2014; cited from earlier work
T1 construct: host or cells: B cells of patients in vivo
T1 sequence (P11836 1-297): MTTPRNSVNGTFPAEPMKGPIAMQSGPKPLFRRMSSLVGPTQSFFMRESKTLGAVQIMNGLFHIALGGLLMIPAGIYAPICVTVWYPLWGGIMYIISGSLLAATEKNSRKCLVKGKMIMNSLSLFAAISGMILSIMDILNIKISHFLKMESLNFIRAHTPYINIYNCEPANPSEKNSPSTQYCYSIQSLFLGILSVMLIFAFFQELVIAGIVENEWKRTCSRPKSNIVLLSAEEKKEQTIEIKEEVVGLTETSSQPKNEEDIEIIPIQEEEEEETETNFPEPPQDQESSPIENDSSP

[21] = 10 mg/kg clozapine IP, 21 days, FIG. 18
[22] = FIG. 3B, referred clozapine patients
[23] = outpatients on clozapine for at least five years (Lozano et al., 2016)
[24] = six weeks treatment (Hinze-Selch et al., 1998)
[25] = clozapine-treated patients post-exclusion, n=94
[26] = number of admissions, clozapine-treated patients

Molecule: CN1CCN(C2=Nc3cc(Cl)ccc3Nc3ccccc32)CC1 [Clozapine, clozapine]
- Pro-B cell fraction in bone marrow [1, 21]: without any change
- Proportion of pre-pro B cells in bone marrow [1, 21]: significant increase
- Percentage of immature B cells in bone marrow ([1]; FIG. 19): reduction
- Overall B cells in the bone marrow ([1]; any dose of clozapine (2.5, 5, 10 mg/kg IP, 21 days), FIG. 18): No overall reduction
- Pre-B cells in bone marrow ([1]; dose-dependent, significant vs control even at 2.5 mg/kg, FIG. 19): reduction
- Percentage of proliferating pre-B cells in bone marrow ([1]; reaching significance for the 5 mg/kg dose, FIG. 19): diminished
- Direct toxicity to differentiating B-cells [2]: no direct toxicity effect
- Levels of circulating total IgG, IgA and IgM vs clozapine naive ([3]; FIG. 6A-C): Significantly reduced
- IgG antibodies against pneumococcus vs clozapine naive ([3]; FIG. 7): trend to lower
- Proportion of plasma cells in spleen ([4]; 10 mg/kg clozapine given on day 1, FIG. 30): significant reduction
- Proportion of B220+ B cells in spleen ([4]; 10 mg/kg from day 1): significantly reduced
- Level of GL7 expression on follicular B cells in lymph node ([4]; all clozapine treatment groups vs vehicle, FIG. 32): significantly decreased
- Percentage of B220+ B cells in lymph nodes ([4]; all doses and time points (5 or 10 mg/kg from day 1 or day 15), FIG. 29): significantly lower percentage
- Lymph node follicular B cells (B220+IgD-Fas+GL7hi) ([4]; all doses/both time points, FIG. 31): Strikingly significant reductions
- Reduction of anti-type II collagen IgG1 ([5]; 10 mg/kg from day 15, FIG. 33): reaching statistical significance
- Serum anti-type II collagen IgG2a ([5]; 5 or 10 mg/kg from day 1 or day 15, single time point, FIG. 33): no significant impact
- Levels of anti-type II collagen IgG1 ([5]; across all doses tested, FIG. 33): nominal reductions
- CNS penetration [6]: high levels of CNS penetration
- CSMB vs healthy controls [7, 22]: significant reduction
- Marginal zone B cell numbers vs healthy control [7, 22]: no significant difference
- Total B cell numbers vs CVID and healthy controls [7, 22]: similar
- Overall lymphopenia or B cell lymphopenia ([7]; human, in vivo): no severe overall lymphopenia or B cell lymphopenia
- Swelling of the first affected paw ([8]; 10 mg/kg clozapine from day 1, FIG. 27): reduced swelling of the first affected paw
- Arthritis onset ([8]; both doses of clozapine (5, 10 mg/kg) from day 1): extremely effective in delaying arthritis onset
- Overall clinical score ([8]; both doses, administered on day 1, FIG. 27): reduced overall clinical score
- Onset of arthritis post-immunisation ([8]; clozapine 5 or 10 mg/kg IP daily from day 1 or day 15, FIGS. 25 and 26): significantly effective in delaying the onset
- Incidence of CIA ([8]; most apparent when dosed just after CII immunisation, FIG. 26): reduces the incidence
- Total number of affected paws compared to vehicle control ([8]; significant with dosing at D1, FIG. 28): reduced the total number of affected paws
- Proportions of CD4+PD1+CXCR5+ T follicular helper cells in lymph node or spleen ([9]; 5 or 10 mg/kg from day 1 or day 15, FIG. 34): did not significantly affect
- Expression of PD-1 in lymph node T follicular helper cells (MFI) ([9]; all doses and time points, FIG. 35): Reduced expression of PD-1
- CXCR5 expression on T follicular helper cells (MFI) ([9]; dosed from day 1, lymph node and spleen, FIG. 36): significant reductions
- Expression of CCR7 on germinal centre resident T follicular helper cells ([9]; lymph node and spleen, FIG. 37): reduction in expression of CCR7
- IgM-Pneumococcus, mean (SEM in the line below) [10]: 58.5 U/L
- Activated T cells (B220+TCR-β+) in spleen compared to control ([11]; FIG. 21): reduced in dose-dependent fashion
- Other splenic cell populations (B220-TCR-β-) ([11]; FIG. 21): No effect
- Percentage of splenic T cells (B220-TCR-β+) ([11]; FIG. 21): reciprocal increase
- Splenic follicular B cell subset ([11]; FIG. 22): no specific reductions
- Splenic marginal zone B cell subset ([11]; FIG. 22): no specific reductions
- Proportion of T2 B cells in the spleen ([11]; across all doses of clozapine, FIG. 22): small increase
- Percentage of splenic B cells (B220+TCR-β-) of total live splenocytes ([11]; clozapine at 5 mg/kg and 10 mg/kg, FIG. 21): significantly lower percentage
- Proportion of transitional stage 1 (T1) B cells in the spleen ([11]; including at the 2.5 mg/kg dose, FIG. 22): mildly reduced proportion
- Germinal centre cells in the spleen versus control or haloperidol ([11]; steady state, FIG. 22): no differences observed
- Body weight [12]: transient fall in body weight
- Previously treatment refractive patients in whom effective [13]: approximately 60%
- Individuals failing to develop an IgG response above ≥50 mg/L [14]: 73%
- Individuals failing to mount a Haemophilus-IgG response ≥1 mcg/ml [14]: 42%
- Patients with IgG to Haemophilus influenza B (HiB) <1 mcg/ml at initial assessment [14]: 75%
- Patients with Pneumococcus-IgG <50 mg/L at initial assessment [14]: 94%
- Patients with Tetanus-IgG <0.1 IU/mL at initial assessment [14]: 38%
- Vaccine response of individual referred patient [14]: Failure to responds to
- Serum IgA after clozapine was stopped ([15]; one patient, after 24 months): 0.29 g/L
- Serum IgM after clozapine was stopped ([15]; one patient, after 24 months): 0.49 g/L
- Mean IgA ([15]; referred clozapine patients): 0.34 g/L
- Mean IgG ([15]; referred clozapine patients): 3.6 g/L
- Mean IgM ([15]; referred clozapine patients): 0.21 g/L
- IgA, IgG, absolute neutrophil count and white blood cell count vs control group [16, 23]: no differences were found
- Mean plasma levels of IgM vs control group [16, 23]: overall decrease
- IgA or IgM concentrations, pattern of autoantibodies [16, 24]: no significant effect
- Serum concentrations of IgG [16, 24]: significant increases
- Concentrations of IgG, IgA and IgM vs clozapine-naive control group ([17]; human, in vivo): significantly reduced
- Effect of duration of clozapine therapy on serum IgG ([17]; p 0.014, FIG. 2, not observed in clozapine-naive patients): associated with lower serum IgG levels
- Admitted to hospital with infection ([18]; clozapine group vs 0.06 in controls): 0.12 per patient year
- Antibiotic courses per year: 1-5 courses, percentage of patients [18, 25]: 33.0%
- Antibiotic courses per year: >5 courses, percentage of patients [18, 25]: 5.3%
- Antibiotic courses per year: nil courses, percentage of patients [18, 25]: 61.7%
- Antibiotic courses per year: >5 courses, percentage of patients ([18]; clozapine-treated patients post-exclusion, n=94, listed as clozapine): 5.3%
- Admission frequency in 12-month period, all cause [18, 26]: 21
- Admission frequency in 12-month period, infection-related [18, 26]: 15
- Overall CD19+ B cell numbers vs clozapine naive ([19]; FIG. 8A-B): not significantly different
- Naive (CD19+ CD27-) B cells as a proportion of total CD19+ B cells ([19]; FIG. 9A-C): Small increase
- Overall memory B cell pool ([19]; FIG. 10A-C): without perturbation
- IgMhi IgDlo memory B cell subpopulation ([19]; FIG. 12A-C): without perturbation
- Circulating levels of transitional B cells ([19]; FIG. 13A-C): No significant difference
- Circulating levels of marginal zone B cells ([19]; FIG. 14A-C): No significant difference
- Class-switched memory B cells (CD27+ IgM- IgD- as % B) ([19]; P=0.06 vs control, FIG. 11A-C): Strong trends to a specific reduction
- Levels of plasmablasts ([19]; P=0.07 vs control clozapine naive, FIG. 15A-C): Strong trends to reduction

Molecule: O=C(CCCN1CCC(O)(c2ccc(Cl)cc2)CC1)c1ccc(F)cc1 [Haloperidol, haloperidol]
- Activated T cells (B220+TCR-β+) in spleen compared to control ([11]; FIG. 21): also modestly apparent

Molecule: Clc1ccc2c(c1)N=C(N1CCNCC1)c1ccccc1N2 [Norclozapine, norclozapine]
- Direct toxicity to differentiating B-cells [2]: no direct toxicity effect

Molecule: rituximab
- Patients with ITP in whom platelet count improved [20]: ~60%
